Read-outs that look alike come from different tables or passages of the source.
Experiments:
[1] = tested on: Escherichia coli (gram-negative); assay: Quantitative antibacterial activity test of treated materials (OECD guideline, ISO 22197/20743), gram-negative
From the text: The coatings in the tests described below were obtained using a PlasmaSpot® by Molecular Plasma Technology, using a power around 100 W (but any power between 60-450 W can work), a voltage about 15 kV (but any voltage between 5 and 25 kV seems to work), a frequency about 60 kHz, plasma gas N2, (but also N2, He, Ar, even air and mixtures thereof can be used), a plasma gas flowabout 100 slm (but any plasma flow between 10 and 250 slm can be used), the precursor injected as aerosol (but a liquid precursor, gas precursor, a mixture of liquids, solutions, dispersions, etc . . . also work well), a working distance about 8 mm (but any working distance between 1 and 20 mm seems to work), a temperature about room temperature.
Further tests were performed to illustrate antibacterial behaviour. Tests were performed on a polypropylene nonwoven (PPNW) substrate having a density of 25 g/m^2, which is commonly used as the outer layer of a surgical face mask, and on the synthetic textile Tyvek®.
Droplets containing bacterial suspension are placed on the treated material and evaluated after an incubation period. After the incubation, the bacteria are recovered from the tested material by washing it with a recovery medium. This recovery medium is then analysed for presence of the pathogen by incubation of the recovery medium on agar plates.
The bacteriae used in the testing were Staphylococcus aureus (gram-positive) and Escherichia coli (gram-negative).
The test is based on the international standard given by OECD guidelines for testing of chemicals based on ISO standards 22197/20743: Quantitative method for evaluating antibacterial activity of porous and non-porous antibacterial treated materials.

[2] = tested on: Staphylococcus aureus (gram-positive); assay: Quantitative antibacterial activity test of treated materials (OECD guideline, ISO 22197/20743), gram-positive; format: cell-based, S. aureus ATCC6538P
Bacteriophage MS2 = assay: Viral load reduction test per ASTM E2721-16 with MS2 instead of Influenza A, on plasma-coated substrate; format: cell-based
[3] = plasma coating on PPNW substrate (polypropylene nonwoven, 25 g/m^2)
[4] = plasma coating on synthetic textile substrate (Tyvek)
[5] = plasma coating of the precursor on Tyvek substrate, MS2 phages, LOD = limit of detection

Molecule: CCCCCCCCCCCCCCCCCC[N+](C)(C)CCC[Si](OC)(OC)OC.[Cl-] [SiQAM, Dimethyloctadecyl[3-(trimethoxysilyl)propyl] ammonium chloride]
- % Gram− bacteria reduced [1, 3]: >99.9996%
- Gram− log reduction [1, 3]: >5.4
- % Gram− bacteria reduced [1, 4]: >98.7%
- Gram− log reduction [1, 4]: >1.9
- % Gram+ bacteria reduced [2, 3]: >99.994%
- Gram+ log reduction [2, 3]: >4.2
- % Gram+ bacteria reduced [2, 4]: >99.95%
- Gram+ log reduction [2, 4]: >3.3
- LOG Reduction (Bacteriophage MS2; [5]): 1.56

Molecule: Benzalkonium chloride
- % Gram− bacteria reduced [1, 3]: 99.9996%
- Gram− log reduction [1, 3]: 5.4
- % Gram− bacteria reduced [1, 4]: 98.7%
- Gram− log reduction [1, 4]: 1.9
- % Gram+ bacteria reduced [2, 3]: >99.994%
- Gram+ log reduction [2, 3]: >4.2
- % Gram+ bacteria reduced [2, 4]: >99.5%
- Gram+ log reduction [2, 4]: >3.3
- LOG Reduction (Bacteriophage MS2): >3.8 (LOD)

Molecule: Citric Acid
- % Gram− bacteria reduced [1, 3]: >99.999%
- Gram− log reduction [1, 3]: >5.0
- % Gram− bacteria reduced [1, 4]: 97.5%
- Gram− log reduction [1, 4]: 1.6
- % Gram+ bacteria reduced [2, 3]: >99.995%
- Gram+ log reduction [2, 3]: >4.3
- % Gram+ bacteria reduced [2, 4]: >99.98%
- Gram+ log reduction [2, 4]: >3.8
- LOG Reduction (Bacteriophage MS2; [5]): >5.0 (LOD)

Molecule: PVP-I2 Poly(vinylpyrrolidone)-Iodine complex [reference compound]
- % Gram− bacteria reduced [1, 3]: >99.9996%
- Gram− log reduction [1, 3]: >5.4
- % Gram+ bacteria reduced [2, 3]: >99.994%
- Gram+ log reduction [2, 3]: >4.2

From patent US20230175195A1, “PLASMA COATING TREATMENT METHOD FOR INHIBITING BIOLOGICAL PATHOGEN TRANSFER” (MOLECULAR PLASMA GROUP S.A., priority 2020, published 2023)
